Laboratory results taken from patent US8637470B2, “Small humanin-like peptides” (The Regents of the University of California, priority 2008, dated 2014).
Entries after “also recorded” stand apart in the source; their conditions may differ. Where no end group is shown, it is not given here.

How the values were obtained:
[1] = tested on: Mouse NIT-1 insulinoma β-cells; assay: Cell proliferation (cell number by MTT/MTS cleavage) in NIT-1 cells; assay type: cell-based; conditions: NIT-1, 100 nM peptide, 72 h
Procedure: (§1) SHLPs exert distinct effects on cell proliferation. Whether SHLPs have the capacity to influence cell proliferation, in addition to their intrinsic effects on apoptosis induction, was also investigated. Mouse NIT-1 insulinoma β-cells and 22RV1 human prostate cancer cells were serum starved for 24 h, followed by 72 h incubation with 100 nM scrambled control peptide, HN or SHLPs. Cell number, as a measure of cell proliferation, was assessed by cleavage of MTT substrate.

[2] = tested on: 22RV1 human prostate cancer cells; assay: Cell proliferation (cell number by MTT/MTS cleavage) in 22RV1 cells; assay type: cell-based; conditions: 22RV1, 100 nM peptide, 72 h
Procedure: as §1
Pro-apoptotic effect on human prostate cancer cells in vitro. To assess the ability of SHLP6 to induce apoptosis in human prostate cancer cells, PC-3, 22RV1 or DU145 cells were incubated in serum free (SF) media for 24 h followed by 24 h incubation with 1 μM scrambled (control) peptide or SHLP6. Apoptosis was assessed by ELISA for fragmentation of histone-associated DNA. In each cell line tested, SHLP6 induced apoptosis by at least 2-fold (FIG. 2), confirming highly significant physiological effects of this novel peptide. To determine whether the effects of SHLP6 were specific to induction of apoptosis, or if it also elicited growth-inhibitory effects, PC-3, DU-145, 22RV1, LAPC4 and LNCaP cells were incubated in SF media for 24 h followed by 72 h incubation with 1 μM SHLP6. Cell number, as a measure of cell proliferation, was assessed by cleavage of MTS substrate.

[3] = tested on: 22RV1 human prostate cancer cells; assay: Apoptosis ELISA (fragmentation of histone-associated DNA) in 22RV1 cells; assay type: cell-based; conditions: 22RV1, serum starved 24 h, then 24 h with 100 nM peptide
Procedure: (§2) SHLPs are anti-apoptotic in 22RV1 prostate cancer cells and NIT-1 β-cells. […] Mouse NIT-1 insulinoma β-cells and 22RV1 human prostate cancer cells were serum starved for 24 h, followed by 24 h incubation with 100 nM scrambled control peptide, HN or SHLPs. Apoptosis was assessed and quantified by ELISA for fragmentation of histone-associated DNA.
(§3) ERK activation is necessary for SHLP-induced inhibition of apoptosis in NIT-1 and 22RV1 cells. To determine the significance of ERK activation for apoptosis inhibition by SHLPs 2 and 3, PD98059 (PD), a specific chemical inhibitor of ERK1/2, was utilized. 22RV1 and NIT-1 cells were serum starved for 24 h in the presence or absence of 25 μM PD or 1 μM wortmannin (PI3-kinase inhibitor; negative control), followed by 24 h incubation with […] scrambled control peptide, SHLP2 or SHLP3. Apoptosis was then assessed by ELISA for fragmentation of histone-associated DNA.
STAT3 Activation is also necessary for SHLP-induced cell survival in 22RV1 cells. Since SHLPs 2 and 3 both stimulate STAT3 phosphorylation in addition to ERK activation, the hypothesis that STAT3 activation occurs downstream of ERK1/2 was tested using a specific chemical inhibitor against STAT3, stattic. 22RV1 cells were incubated for 24 h in SF media in the presence or absence of 20 μM stattic followed by 24 h incubation with 100 nM scrambled control peptide, SHLP2 or SHLP3. Apoptosis was assessed by ELISA for fragmentation of histone-associated DNA. […]

biotinylated-HN = biotinylated-HN (Homo sapiens, UniProt Q8IVG9); assay: Dot-blot binding to biotinylated-HN; conditions: 2, 5 or 10 nmol peptide dotted on nitrocellulose
Procedure: To test a dimerization hypothesis, we performed a dot-blot using biotinylated-HN. Two, 5 or 10 nmol IGF-I (negative control), HN (positive control) or SHLP peptide were dotted on to nitrocellulose membrane, and their ability to bind to biotinylated-HN was assessed immunologically. […] Specific interactions that occur may be determined using, e.g., dot blots with biotinylated SHLPs, and/or antibodies against specific SHLPs.

[4] = tested on: Mouse NIT-1 insulinoma β-cells; assay: Apoptosis ELISA (fragmentation of histone-associated DNA) in NIT-1 cells; assay type: cell-based; conditions: NIT-1, serum starved 24 h, then 24 h with 100 nM peptide
Procedure: as §2, §3
Role of IGFBP-3 in effects of SHLPs on cell survival. Since IGFBP-3 is an important regulator of HN action, IGFBP-3 was tested for a possible role in regulating the anti- or pro-apoptotic actions of SHLPs. NIT-1 cells were incubated with 1 μg/ml IGFBP-3±0, 10, 100 or 1000 nM SHLP2 or 3 for 24 h. Apoptosis induction was assessed by ELISA for fragmentation of histone-associated DNA.
Co-incubation of SHLPs. To evaluate therapeutic uses involving co-treatment with SHLPs, the effect of HN±SHLPs on apoptosis was tested in both 22RV1 and NIT-1 cells. Cells were incubated in SF media for 24 h followed by 24 h with 100 nM HN, SHLP or peptide combination. Apoptosis was assessed by ELISA for fragmentation of histone-associated DNA. Cells were treated with all possible double peptide combinations. Although many peptide combinations had no additive or combined effects compared with the actions of the peptides individually, co-treatment with certain combinations led to unexpected functional changes (FIG. 11). […] Thus, specific SHLPs may either act on complementary pathways, or interact with each other, leading to change of function of one or both peptides. When the same experiments were repeated in NIT-1 cells, similar, but different, change of function effects were observed (FIG. 11B).

[5] = tested on: 22RV1 prostate cancer xenografts; conditions: mouse, in vivo, ip, 4 mg/kg/day
Procedure: Inhibition of 22RV1 xenograft tumor growth and angiogenesis in vivo. In light of the pro-apoptotic actions of SHLP6 in vitro and the association of many cancers with mitochondrial dysfunction, the effect of SHLP6 on tumor growth was investigated in vivo. SCID mice harboring 22RV1 prostate cancer xenografts were treated with 4 mg/kg/day SHLP6 or scrambled control peptide by daily i.p. injection for 7 days.
To assess the mechanism underlying the reduction in tumor growth, tumor apoptosis (TUNEL), angiogenesis (VEGF) and tumor cell proliferation (PCNA; not shown) were assessed by IHC (FIG. 19). […] SHLP6 therefore has great potential as an anti-cancer agent.

S. cerevisiae = assay: Yeast heat shock survival; assay type: cell-based; conditions: 10 μM peptide, 90° heat shock
Procedure: SHLPs enhance stress resistance in yeast. The ability of SHLPs to enhance stress resistance in yeast was tested. The ability of yeast to survive heat shock after being treated with different peptides is a commonly used method to test the ability of peptides to enhance yeast survival.

ERK = ERK activation in 22RV1 cells (immunoblotting, ELISA); assay type: cell-based, human; conditions: 22RV1, 100 nM
Procedure: Characterization of the intracellular signaling pathways activated by SHLPs. To determine a mechanism for the growth and apoptosis effects of SHLPs, SHLPs were tested for the ability to modulate activation of intracellular signaling pathways. 22RV1 cells in SF media were treated with 100 nM SHLP 1-5 and whole cell extracts were harvested after 15 min, 30 min, 2 h, 4 h, 8 h and 24 h. Proteins were separated by SDS-PAGE and analyzed by immunoblotting.
To test the hypothesis that SHLPs may act in concert to regulate intracellular signaling, 22RV1 cells were co-treated with SHLPs 2 and 3, and ERK activation was assessed.
Since HN causes activation of STAT3, SHLPs 2 and 3 were also tested for effects on STAT3. […] To more accurately quantify the ERK phosphorylation caused by SHLPs 2 and 3, we repeated the experiment as described above but used a commercially available ERK ELISA to assess ERK phosphorylation. Optimal ERK activation by SHLP2 was 9-fold after 24 h, whilst optimal activation by SHLP3 was 12-fold after 2 h (FIG. 5).

[6] = tested on: Mouse primary cortical neurons; assay: Protection of primary cortical neurons from Aβ-induced cell death (Calcein-AM); assay type: cell-based; conditions: 72 h
Procedure: SHLPs protect neurons from Aβ-induced apoptosis. When it was first discovered, HN was described as a potent neural survival factor with clinical implications as a therapeutic agent against neurodegenerative diseases such as Alzheimer's Disease. Since many of the SHLPs appear to be functionally related to HN, SHLPs were tested as potential neuroprotective factors. Mouse primary cortical neurons were incubated with 25 μM Aβ1-43 in the presence or absence of 100 nM SHLP2 or 3, HNG (positive control) or 1 nM colivelin (positive control). After 72 h, neuronal viability was assessed by Calcein-AM staining followed by fluorescence microscopy (FIG. 13).

MLEVMFLVNRRGKICRVPFTFFNLSL [SHLP4, small humanin-like peptide, mtDNA 2446-2524]
Cell number as a measure of cell proliferation [1]: slightly stimulated the proliferation | Cell number as a measure of cell proliferation [2]: slightly stimulated the proliferation | Apoptosis (fragmentation of histone-associated DNA) [3]: minimal effect | Binding to biotinylated-HN (dot-blot) (biotinylated-HN): very strong interactions; also recorded: binds | Apoptosis (fragmentation of histone-associated DNA) [4]: anti-apoptotic effects

MLDQDIPMVQPLLKVRLFND [SHLP6]
Signs of toxicity [5]: no detectable signs of toxicity

MAPRGFSCLLLLTSEIDLPVKRRA [HN, reference compound]
Yeast survival of heat shock (S. cerevisiae): allowed the yeast to withstand 90° heat shock | Binding to biotinylated-HN (dot-blot) (biotinylated-HN): dimerize/multimerize with itself | Apoptosis (fragmentation of histone-associated DNA) [4]: anti-apoptotic effects

MYCSEVGFCSEVAPTEIFNAGLVV [SHLP5, small humanin-like peptide, mtDNA 2785-2856]
Cell number as a measure of cell proliferation [1]: slightly stimulated the proliferation | Cell number as a measure of cell proliferation [2]: slightly stimulated the proliferation | Apoptosis (fragmentation of histone-associated DNA) [3]: minimal effect | ERK activation profile (immunoblotting) (ERK; 15 min to 24 h): no observable effect

colivelin [reference compound]
Neuronal viability against Aβ-induced cell death ([6]; 25 μM Aβ1-43, 1 nM colivelin): inhibited

HNG: HNG (S14G), hyper-potent HN analog (MAPRGFSCLLLLTGEIDLPVKRRA; Humanin; UniProt Q8IVG9 1-24, looked up, variant S14G) [reference compound]
Neuronal viability against Aβ-induced cell death ([6]; 25 μM Aβ1-43, 100 nM peptide): inhibited

MCHWAGGASNTGDARGDVFGKQAG [SHLP1, small humanin-like peptide, mtDNA 2490-2561]
Cell number as a measure of cell proliferation [1]: slightly stimulated the proliferation | Cell number as a measure of cell proliferation [2]: slightly stimulated the proliferation | Apoptosis (fragmentation of histone-associated DNA) [3]: minimal effect | Binding to biotinylated-HN (dot-blot) (biotinylated-HN): no interaction | Duration of sustained ERK phosphorylation (ERK): approximately 8 h | Increase in ERK phosphorylation (immunoblotting) (ERK; within 30 min): 5 fold
